Experimental data from PubChem BioAssay (NCI).
Where “and” joins values, the source holds several entries; their conditions need not be identical. Equal entries are not always repeated.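 Assay format: 96-well plates, 48-hour exposure. GI50: concentration for 50% inhibition of growth. The concentration for full growth arrest is given as TGI.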

Experiments:
Assay in all cases: NCI tumour cell line growth inhibition, 48 h
A549 NSCLC = tested on: A549 NSCLC
CCRF-CEM leukemia = tested on: CCRF-CEM leukemia
HT29 colon = tested on: HT29 colon
IGROV1 ovarian = tested on: IGROV1 ovarian
OVCAR-3 ovarian = tested on: OVCAR-3 ovarian
SF-295 CNS = tested on: SF-295 CNS
SK-MEL-5 melanoma = tested on: SK-MEL-5 melanoma
SNB-78 CNS = tested on: SNB-78 CNS
TK-10 renal = tested on: TK-10 renal

SMILES | TGI (A549 NSCLC) | TGI (CCRF-CEM leukemia) | TGI (HT29 colon) | TGI (IGROV1 ovarian) | TGI (OVCAR-3 ovarian) | TGI (SF-295 CNS) | TGI (SK-MEL-5 melanoma) | TGI (SNB-78 CNS) | TGI (TK-10 renal) | GI50 (A549 NSCLC) | GI50 (OVCAR-3 ovarian) | GI50 (SF-295 CNS) | GI50 (CCRF-CEM leukemia) | GI50 (HT29 colon) | GI50 (IGROV1 ovarian) | GI50 (SK-MEL-5 melanoma) | GI50 (TK-10 renal)
O=C1Cc2ccccc2N1c1c(Cl)cccc1Cl | > 100 µM | > 100 µM | > 100 µM | > 100 µM | > 100 µM | > 100 µM | > 100 µM | > 100 µM | > 100 µM | – | – | – | – | – | – | – | –
Nc1nc(Cl)c(N=Nc2ccc(Cl)cc2)c(NCC2(CO)CC(OCc3ccccc3)C2)n1 (stereo not given) | 51.2 µM and > 100 µM and 32.1 µM | 51.5 µM and > 100 µM | 20 µM and > 100 µM and 14 µM | 70.3 µM and > 100 µM and 29.9 µM | 45 µM and > 100 µM and 21.5 µM | 99.5 µM and > 100 µM and 30.8 µM | 21 µM and > 100 µM and 38.7 µM | – | 46.9 µM and > 100 µM and 24.3 µM | 14.7 µM and 62.7 µM and 13.8 µM | 5.88 µM and 19.2 µM and 6.07 µM | 22.2 µM and 45 µM and 13.4 µM | – | – | – | – | –
COc1ccc(N(C)c2nc(Cl)nc3ccn(C)c23)cc1 | > 100 µM | > 100 µM | 0.12 µM | > 100 µM | > 100 µM | > 100 µM | < 0.01 µM | – | > 100 µM | < 0.01 µM | < 0.01 µM | < 0.01 µM | < 0.01 µM | < 0.01 µM | < 0.01 µM | < 0.01 µM | 91.3 µM
O=C1c2cccc3cccc(c23)C(=O)N1CCCCN1CCN(CCCCOc2ccc(-c3nc4ccc(N5CCOCC5)cc4[nH]3)cc2)CC1 | > 100 µM | > 100 µM | > 100 µM | > 100 µM | > 100 µM | > 100 µM | > 100 µM | – | > 100 µM | > 100 µM | 12.1 µM | > 100 µM | > 100 µM | > 100 µM | 61.9 µM | 9.1 µM | > 100 µM
Cn1ccnc1C(=O)/C=C/c1ccc(C(=O)Nc2ccccc2O)cc1 | 13.6 µM | 8.25 µM | 7.3 µM | 4.88 µM | 6.37 µM | 12.1 µM | 11.1 µM | – | 12.7 µM | 3.03 µM | 2.32 µM | 3.53 µM | 1.13 µM | 2.4 µM | 1.97 µM | 3.36 µM | 3.2 µM
O=C(CC(O)c1ccncc1)c1ccccc1 (stereo not given) | > 100 µM | > 100 µM | 85.3 µM | > 100 µM | > 100 µM | > 100 µM | 30.8 µM | – | > 100 µM | 29 µM | 30.5 µM | 27.7 µM | 30.7 µM | 28.6 µM | 35.9 µM | 16.1 µM | 41.8 µM
COc1cc(/C=C/C(=O)C(C(=O)/C=C/c2ccc(OC(=O)CCNc3nnc(C)s3)c(OC)c2)C(=O)CCNc2nnc(C)s2)ccc1OC(=O)CCNc1nnc(C)s1 | 7.87 µM | 2.51 µM | 3.56 µM | 4.47 µM | 6.95 µM | 20.2 µM | 4.52 µM | – | 13.7 µM | 2.7 µM | 2.4 µM | 6.8 µM | 1.09 µM | 1.63 µM | 1.98 µM | 1.87 µM | 4.03 µM
Cc1ccc(NSc2ccccc2[N+](=O)[O-])cc1 | 17.1 µM | > 52.2 µM | 12.3 µM | 28.2 µM | 7.4 µM | 9.18 µM | 13.6 µM | – | 25.4 µM | 0.951 µM | 0.503 µM | 0.889 µM | 0.85 µM | 0.117 µM | 1.25 µM | 0.152 µM | 10.4 µM
O[C@@H]1CCCN1Cc1cc2cc3c(cc2c2cc(OCc4ccccc4)ccc12)OCO3 | 14.8 µM | 14.4 µM | 5.09 µM | 20.1 µM | 14.5 µM | 4.23 µM | 3.5 µM | – | 19.8 µM | 3.69 µM | 3.73 µM | 1.95 µM | 4.35 µM | 1.94 µM | 5.48 µM | 1.78 µM | 5.85 µM
COc1cc(Nc2ncc3c(C)nc(-c4cccc(Oc5ccccc5)c4)n3n2)cc(OC)c1OC | > 25 µM | > 25 µM | 16.3 µM | > 25 µM | 11.2 µM | > 25 µM | 6.74 µM | – | > 20.6 µM | 6.32 µM | 4.64 µM | 7.2 µM | 3.9 µM | 5.71 µM | 2.32 µM | 3.28 µM | 3.52 µM
CO/N=C(\COc1ccc2c(c1)oc(=O)c1cc(OC)ccc12)c1ccc(F)cc1 | 94.8 µM | > 100 µM | 66.8 µM | 42.8 µM | 34.2 µM | 87.5 µM | > 100 µM | – | 29.5 µM | 26.3 µM | 16.7 µM | 24.1 µM | 47.5 µM | 16.7 µM | 19.3 µM | 55.6 µM | 14.7 µM
CC1(C)N=C(N)N=C(N)N1c1ccc(OCC(=O)N2CCOCC2)c(Cl)c1 | > 100 µM | > 100 µM | > 100 µM | 12.9 µM | > 100 µM | > 100 µM | > 100 µM | – | > 100 µM | 0.271 µM | 5.63 µM | 0.561 µM | 3.55 µM | 0.66 µM | 0.379 µM | 1.36 µM | > 100 µM
CNc1cccnc1/C=N/NC(N)=S | 9.91 µM | > 10 µM | > 10 µM | > 10 µM | > 8.6 µM | 5.71 µM | > 10 µM | – | > 10 µM | – | – | – | – | – | – | – | –
COc1cc(C2CC(c3ccc(Nc4ccnc5cc(Cl)ccc45)cc3)=NN2C=O)cc(OC)c1OC (stereo not given) | > 100 µM | 69.4 µM | 7.17 µM | > 100 µM | 3.4 µM | 27.7 µM | 6.28 µM | – | 9.4 µM | 6.9 µM | 1.91 µM | 5.63 µM | 1.82 µM | 2.83 µM | 22.3 µM | 1.98 µM | 3.09 µM
CC(C)(C)c1cn2cccc(C(=O)N3CCN(CC(=O)Nc4ccc(Cl)cc4C(=O)c4ccccc4Cl)CC3)c2n1 | 23.3 µM | 13.7 µM | 12.1 µM | 38.5 µM | 15.5 µM | 7.18 µM | 12.7 µM | – | > 100 µM | 2.64 µM | 3.71 µM | 4.05 µM | 3.39 µM | 3.33 µM | 16.4 µM | 3.62 µM | 16 µM
